How the values were obtained:
FPTase (H-Ras substrate) = FPTase (H-Ras substrate) (UniProt P29702+P49355); assay: in vitro FTase Inhibition Assay, H-Ras as substrate for farnesylation; type: biochemical; details: H-Ras used as substrate for farnesylation
Method: (§1) The ability of the compounds of this invention to inhibit FPTase was evaluated in the standard pharmacological in vitro test procedures described below.
(§2) Methods—1. […] 2. Solution #1 is added to FPTase reaction in a volume of […]. 3. Standard reaction mix, […], contains 50 mM Tris (7.5), […], 3 mM MgCl2, 20 mM KCl, 5 mM DTT, 0.2% octyl-B-glucoside, 1% DMSO, […], 10 ng FPTase, and various concentrations of FPTase inhibitors. 4. Incubate for 30-90 min at […] 5. Stop reactions with TCA/SDS (6%/2%), hold at 4° C. for 45-60 min. 6. Filter by manifold or 96 well plate, wash filter 3-5× with TCA (6%). 7. Add scintillant to filters, measure ^3H-FPP incorporation into Ras protein.
(§3) (cpm from precipitated Ras with test compounds)−(background cpm)×100=% inhibition.
(§4) (cpm from precipitated Ras without test compounds)−(background cpm)

FPTase (K-Ras substrate) = FPTase (K-Ras substrate) (UniProt P29702+P49355); assay: in vitro FTase Inhibition Assay, K-Ras as substrate for farnesylation; type: biochemical; details: K-Ras used as substrate for farnesylation
Method: as §1, §2, §3, §4

| IC50 (FPTase (H-Ras substrate)) | IC50 (FPTase (K-Ras substrate)) | Structure (SMILES) |
| --- | --- | --- |
| 30 to 50 nM | 230 to 1000 nM | COc1ccc(S(=O)(=O)C2(CCCC#Cc3cc([N+](=O)[O-])ccc3C)SC(=O)NC2=O)cc1 (centres unmarked) [Example 122, 5-(4-Methoxybenzenesulfonyl)-5-[5-(2-methyl-5-nitrophenyl)pent-4-ynyl]-thiazolidine-2,4-dione] |
| 80 to 82 nM | 1000 to 2800 nM | COc1ccc(S(=O)(=O)C2(CCCC#Cc3cc([N+](=O)[O-])ccc3OC)SC(=O)NC2=O)cc1 (centres unmarked) [Example 123, 5-(4-Methoxybenzenesulfonyl)-5-[5-(2-methoxy-5-nitrophenyl)pent-4-ynyl]-thiazolidine-2,4-dione] |
| 52 to 80 nM | 910 to 1300 nM | Cc1ccc([N+](=O)[O-])cc1C#CCCCC1(S(=O)(=O)c2ccc(Oc3ccccc3)cc2)SC(=O)NC1=O (centres unmarked) [Example 124] |
| 30 nM | 400 nM | Cc1ccc([N+](=O)[O-])cc1C#CCCCC1(S(=O)(=O)c2ccc(I)cc2)SC(=O)NC1=O (centres unmarked) [Example 125, 5-(4-Iodobenzenesulfonyl)-5-[5-(2-methyl-5-nitrophenyl)pent-4-ynyl]-thiazolidine-2,4-dione] |
| 90 nM | 1700 nM | Cc1ccc([N+](=O)[O-])cc1C#CCCCC1(S(=O)(=O)c2cccc3ccccc23)SC(=O)NC1=O (centres unmarked) [Example 126, 5-[5-(2-Methyl-5-nitrophenyl)-pent-4-ynyl]-5-(naphthalene-1-sulfonyl)-thiazolidine-2,4-dione] |
| 120 to 140 nM | 1300 to 1500 nM | Cc1ccc([N+](=O)[O-])cc1C#CCCCC1(S(=O)(=O)c2ccc3ccccc3c2)SC(=O)NC1=O (centres unmarked) [Example 127, 5-[5-(2-Methyl-5-nitrophenyl)pent-4-ynyl]-5-(naphthalene-2-sulfonyl)-thiazolidine-2,4-dione] |
| 100 nM | 600 to 790 nM | Cc1cc([N+](=O)[O-])ccc1C#CCCCC1(S(=O)(=O)c2ccc(Oc3ccccc3)cc2)SC(=O)NC1=O (centres unmarked) [Example 129, 5-[5-(2-Methyl-4-nitrophenyl)pent-4-ynyl]-5-(4-phenoxybenzenesulfonyl)-thiazolidine-2,4-dione] |
| 23 to 56 nM | 320 to 1000 nM | COc1ccc(S(=O)(=O)C2(CCCC#Cc3ccc([N+](=O)[O-])cc3C)SC(=O)NC2=O)cc1 (centres unmarked) [Example 130, 5-(4-Methoxybenzenesulfonyl)-5-[5-(2-methyl-4-nitrophenyl)-pent-4-ynyl]-thiazolidine-2,4-dione] |
| 41 to 73 nM | 210 to 1000 nM | COc1ccc(S(=O)(=O)C2(CCCC#Cc3ccc([N+](=O)[O-])cc3OC)SC(=O)NC2=O)cc1 (centres unmarked) [Example 132, 5-(4-Methoxybenzenesulfonyl)-5-[5-(2-methoxy-4-nitrophenyl)pent-4-ynyl]-thiazolidine-2,4-dione] |
| 40 to 200 nM | 54 to 1000 nM | COc1ccc(S(=O)(=O)C2(CCCC#Cc3cc(F)cc([N+](=O)[O-])c3)SC(=O)NC2=O)cc1 (centres unmarked) [Example 133, 5-[5-(3-Fluoro-5-nitrophenyl)pent-4-ynyl]-5-(4-methoxybenzene-sulfonyl)-thiazolidine-2,4-dione] |
| 14 to 850 nM | 430 to 680 nM | Cc1ccc(C)c(C#CCCCC2(S(=O)(=O)c3ccc(I)cc3)SC(=O)NC2=O)c1 (centres unmarked) [Example 134, 5-[5-(2,5-Dimethylphenyl)pent-4-ynyl]-5-(4-iodobenzenesulfonyl)-thiazolidine-2,4-dione] |
| 20 to 32 nM | 1900 to 2100 nM | COc1ccc(S(=O)(=O)C2(CCCC#Cc3cc(C)ccc3C)SC(=O)NC2=O)cc1 (centres unmarked) [Example 135, 5-[5-(2,5-Dimethylphenyl)pent-4-ynyl]-5-(4-methoxybenzenesulfonyl)-thiazolidine-2,4-dione] |
| 43 to 50 nM | 1000 to 1900 nM | COc1ccc(S(=O)(=O)C2(CCCC#Cc3ccc(C)cc3C)SC(=O)NC2=O)cc1 (centres unmarked) [Example 136, 5-[5-(2,4-Dimethylphenyl)pent-4-ynyl]-5-(4-methoxybenzenesulfonyl)-thiazolidine-2,4-dione] |

Reference: patent publication US6784184B2, “5-(arylsulfonyl)-,5-(arylsulfinyl), and 5-(arylsulfanyl)-thiazolidine-2,4-diones useful for inhibition of farnesyl-protein transferase” (Wyeth Holdings Corporation, priority 2001, dated 2004)
